Source: US20090117123A1, “IMMU[…] HPV E6 AND E7 PROTEINS” (National Health Research Institutes, priority 2007, published 2009)

Tests used:
[1] = biological target: HLA A11 heavy chain (His-Tag fusion) with β2-microglobulin (human); assay: MHC-peptide complex formation assay, ELISA; relative to positive and negative control O.D.
[2] = test system: splenocytes from HLA-A11/K^b transgenic mice; assay: IFN-γ ELISPOT of peptide-stimulated splenocytes from DNA plasmid-immunized mice; assay type: cell-based, mouse; settings: splenocytes of mice immunized i.m. with plasmid pE3/19K/HPV18E6E7, stimulated with the peptide; FIG. 7A
Description: (§1) A 96-well plate, having nitrocellulose membrane inserted in each well, was coated with […] anti-IFN-γ antibody (clone MAB1-D1K, 10 μg/ml in 1×PBS, from Mabtech, Macka, Sweden) and was incubated at 4° C. for 24 hours. The plate was washed four times with PBS, and then incubated with […] per well RPMI medium containing 10% fetal bovine serum (FBS) for 1-3 hours. Next, splenocytes were suspended in RPMI containing 10% FBS and 1×10^5 or 5×10^5 splennocytes (200 μl) were added to each well with or without A11VVY. The ELISPOT assay was performed in triplicate wells for each experimental condition. The plate was incubated in an incubator supplied with 5% CO2 at 37° C. for 2 hours. After being washed for 2-3 times, the plate was incubated with avidin-peroxidase complex reagent for one hour at room temperature and then washed three times with 0.05% (w/v) Tween 20 in PBS and three times with PBS. 100 μl aminoethylcarbazole staining solution were then added to each well to develop stained spots. After 4-6 minutes, the plate was washed with running tap water to stop the reaction of developing the spots, which were counted by a computational image analysis.
Plasmid pE3/19K/HPV18E6E7 was constructed following the conventional recombinant technology. This plasmid contains the E3/19K leader sequence and a nucleotide sequence encoding a fusion protein composed of the H-2K^b-restricted CTL epitope SII (derived from ovalbumin) and HPV18E6E7 polypeptide, which includes epitopes VVY, SIP, and ATL.
(§2) Seven to ten days after the second immunization, the mice were sacrificed and their splenocytes collected.
The splenocytes werestimulated with peptide VVY, SII, SIP, ATL, or a control peptide and the levels of IFN-γ secreted thereby were determined with the Enzyme-linked immunospot (ELISPOT) assay described in Example 1 above.

[3] = test system: ^51Cr-labeled T2/HLA-A11 cells; assay: Chromium-release assay, peptide-specific CTL effects after DNA plasmid immunization; assay type: cell-based, mouse; settings: mice immunized with plasmid pE3/19K/HPV18E6E7; FIG. 7B
Description: (§3) Next, the CTL effect induced by peptide VVY was examined as follows. HLA-A11 transgenic mice were immunized twice with peptide VVY, SIP, or ATL, all of which were derived from HPV 18, following the procedures described above in this Example. Splenocytes (2×10^6/ml) isolated from the immunized mice were cultured with 10 μg/ml of either VVY or A11-SCC and 10 U/ml rIL-2 for at 37+ C. for 5 days. A standard chromium release assay was performed to determine cytolytic activity. In brief, T2/HLA-A11 cells were labeled with 100 μCi of ^51Cr (PerkinElmer, Waltham, Mass., USA) for 1.5 hrs at 37° C. and washed afterwards three times with cold RPMI. The cultured splenocytes, used as effector cells, were mixed with 5×10^3 the ^51Cr-labeled T2/HLA-A11 cells at various ratios in triplicate wells in a U-bottom 96-well plate (Nunc, Rochester, N.Y., USA). After 4-5 hrs incubation, supernatants from each well were collected and the radioactivity contained therein was measured using a γ-counter (PARKARD, Ramsey, Mich., USA). The specific lysis rate was determined following the formula: Specific lysis rate (%)=(Samplecpm−Spontaneous releasecpm)/(Maximum releasecpm−Spontaneous releasecpm)%.
as §2
Next, peptide-specific CTL effects were examined by the chromium-release assay described in Example 4 above.

[4] = test system: splenocytes from C57BL/6-HLA-A11 transgenic mouse; assay: IFN-γ ELISPOT of splenocytes from peptide-immunized HLA-A11 transgenic mouse; assay type: in vivo; settings: HLA-A11 transgenic mouse immunized s.c. with peptide, ISA-51 and T helper epitope; FIG. 5A
Description: C57BL/6-HLA-A11 transgenic mouse, derived from the Animal Technology Institute in Taiwan, was used in this study. 50 μg synthetic peptides having the amino acid sequence of […] (A11VVY; SEQ ID NO:1) were formulated with incomplete adjuvant ISA-51 in the presence of a peptide […] (SEQ ID NO:17), which contains a T helper cell epitope derived from hepatitis B virus. The composition thus formed was injected subcutaneously into the HLA-A11 transgenic mouse two times every two weeks. Seven days after the final injection, splenotyes from the immunized mouse were isolated and cultured in a medium containing A11VVY. The level of IFN-γ secreted to the medium was determined by Enzyme-linked immunospot (ELISPOT) as described below.
A 96-well plate, having nitrocellulose membrane inserted in each well, was coated with […] anti-IFN-γ antibody (clone MAB1-D1K, 10 μg/ml in 1×PBS, from Mabtech, Macka, Sweden) and was incubated at 4° C. for 24 hours. The plate was washed four times with PBS, and then incubated with […] per well RPMI medium containing 10% fetal bovine serum (FBS) for 1-3 hours. […] After 4-6 minutes, the plate was washed with running tap water to stop the reaction of developing the spots, which were counted by a computational image analysis.

[5] = test system: HLA A24 heavy chain and β2-microglobulin; assay: MHC-peptide complex formation assay (ELISA), HLA A24; assay type: binding
Description: The HLA A24 heavy chain and β2-microglobulin were expressed and purified following the method described above. These proteins were incubated with synthetic peptides containing potential CTL-epitopes identified by the computational programs mentioned in Example 1. The formation of HLA A24-β2-peptide complexes was determined by the ELISA assay also described in Example 1 above.

[6] = test system: ^51Cr-labeled T2/HLA-A11 cells; assay: Chromium release assay with splenocytes from peptide-immunized mice; assay type: in vivo, mouse; settings: HLA-A11 transgenic mice immunized twice with the peptide; FIG. 6B
Description: as §3

[7] = test system: T cells of HLA-A24 transgenic mice; assay: IFN-γ secretion of splenocytes from peptide-immunized HLA-A24 transgenic mice; assay type: in vivo, mouse; settings: HLA-A24 transgenic mice immunized with peptide; FIG. 5B
Description: FIG. 5B is a diagram showing IFN-γ secretion of splenocytes obtained from HLA-A24 transgenic mice immunized with peptide […] (A24 CYE, SEQ ID NO:5) or a control peptide.
as §1

[8] = test system: CD8^+ T cells of C57BL/6-HLA-A11 transgenic mice; assay: HLA-A11-peptide tetramer staining of CD8+ T cells from peptide-immunized mice; assay type: in vivo, mouse; settings: HLA-A11 transgenic mice immunized s.c. twice; splenocytes cultured 5 days with peptide and rIL-2; FIG. 6A
Description: C57BL/6-HLA-A11 transgenic mice were immunized s.c. twice with peptide VVY (SEQ ID NO:1) or control peptide SSC (SEQ ID NO:12) together with a T helper cell epitope […] (SEQ ID NO:17), and incomplete adjuvant ISA-51. Seven days after the second immunization, splenocytes were harvested from the immunized mice, cultivated in vitro in the presence of peptide VVY or SSC (10 μg/ml) and rIL-2 (10 U/ml) for five days. The cells were then double stained with HLA-A11-peptide tetramer VVY-tet-PE or SCC-tet-PE and a FITC-conjugated anti-CD8 antibody to detect CD8^+ T cells that bind to either VVY or SSC.
The tetramers were prepared as follows. Purified HLA-A11 heavy chains and β2-microglobulins were refolded in the presence of VVY or SSC in a refolding buffer containing 100 mM Tris-HCl (pH 8), 400 mM L-arginine, 2 mM EDTA, 5 mM reduced glutathione, 0.5 mM oxidized glutathione for 48 hrs at 4° C. […]
The tetramers thus prepared were incubated with the peptide-challenged T cells in a FACS staining buffer for 20 min at room temperature and a FITC conjugated anti-CD8 antibody was then added to the incubation system and kept on ice for 20 min. The stained cells were analyzed by flow cytometry (FACScalibur BD Bioscience, Calif., USA) in the presence of 1 μg/ml of propidium iodide (Sigma, Mo., USA) to exclude dead cells.

… (54-62 of HPV 18 E6) (peptide)
relative binding % [1]: 30%

RAHYNIVTF (listed as Human papillomavirus) [control peptide]
induction of IFN-γ secretion [2]: not | peptide-specific CTL effects [3]: not

WLSLLVPFV [A2-restricted peptide, used as control peptide for immunization]
IFN-γ secreting splenocytes [4]: little

… (64-72 of HPV 52 E6) (peptide)
relative binding % [1]: 30%

VDLLCHEQL (listed as Human papillomavirus) [23-31 of HPV 18 E7]
HLA A24 restriction (HLA A24-β2-peptide complex formation) [5]: HLA A24 restricted epitopes

ATLQDIVLH (listed as Human papillomavirus) [peptide derived from HPV 18]
CTL effects (specific lysis) [6]: not | induction of IFN-γ secretion [2]: not

CYEQLGDSS (listed as Human papillomavirus) [24-32 of HPV 52 E7]
HLA A24 restriction (HLA A24-β2-peptide complex formation) [5]: HLA A24 restricted epitopes | IFN-γ secretion by peptide-specific T cells [7]: incuded A24CYE-specific T cells to secrete IFN-γ

VVYRDSIPH (listed as Human papillomavirus) [54-62 of HPV 18 E6]
IFN-γ secreting splenocytes [4]: large amount | induction of VVY-specific CD8^+ T cells (tetramer staining) [8]: induced VVY-specific CD8^+ T cells | CTL effects (specific lysis) [6]: induced CTL effects | induction of IFN-γ secretion [2]: induced IFN-γ secretion | peptide-specific CTL effects [3]: induced CTL effects

SIPHAACHK (listed as Human papillomavirus) [peptide derived from HPV 18]
CTL effects (specific lysis) [6]: not | induction of IFN-γ secretion [2]: not

SSCSSCPLSK (listed as Human herpesvirus) [A11-SCC, positive control A11-restricted peptide derived from EBV LMP2 protein]
induction of VVY-specific CD8^+ T cells (tetramer staining) [8]: did not show this effect

… (94-102 of HPV 58 E6) (peptide)
relative binding % [1]: 30%

SIINFEKL (listed as Mus musculus)
induction of IFN-γ secretion [2]: induced IFN-γ secretion | peptide-specific CTL effects [3]: not
